Measured values published in US20210323995A1, “ISOLITHOCHOLIC ACID OR ISOALLOLITHOCHOLIC ACID AND DEUTERATED DERIVATIVES THEREOF FOR PREVENTING AND TREATING CLOSTRIDIUM DIFFICILE-ASSOCIATED DISEASES” (PHENEX PHARMACEUTICALS AG, priority 2018, published 2021).
Converted amounts (≈) assume the structure as drawn.

What was measured:
[1] = tested on: Clostridium difficile (Clostridioides difficile), Human Strain R20291, Ribotype RT027; experiment: MIC on Clostridium difficile human strain R20291, ribotype RT027; format: cell-based; conditions: 16 h incubation, OD600
Procedure: Determination of Minimal Inhibitory Concentrations (MICs) of Bile Acid Derivatives on Clostridium difficile (Clostridioides difficile), Human Strain R20291, Ribotype RT027, Reference DSMZ (DSM-27147)
All bacterial culturing steps and MIC experiments were performed under anoxic conditions (95% N2, 5% H2) and 37° C. in an incubator model 2002 that was placed in a Type B vinyl anaerobic chamber, both from Coy Laboratories Products. The strains were maintained as frozen stock cultures in Brain-Heart Infusion broth supplemented with […] and 1% (w/v) L-cysteine (BHIS) containing 40% (v/v) glycerine (Carl Roth GmbH, Cat. #3783.1) at −80° C. Brain-heart infusion broth (Sigma Aldrich, Cat. #53286) with the addition of with 5 g/L yeast extract (Carl Roth GmbH, Cat. #2363.5) was prepared according to the manufacturer's instructions. After heat sterilization, 1 g L-cysteine (Sigma Aldrich, Cat. #C7352) was added that was dissolved in 10 mL of distilled water (H2Odd) and filter sterilized. Medium was placed over night into the anaerobic chamber for degassing. For the MIC-assay cryo-preserved strains were streaked out on BBL™ Columbia CNA Agar with 5% Sheep Blood (BD™, Cat. #221352) and grown for 2-3 d. These plates were kept at rt in the anaerobic chamber for up to two weeks for starting fresh liquid cultures. […]

[2] = tested on: C. diff. strain VPI 10463 (ATCC-43255) infection; experiment: Murine model of Clostridium difficile-associated disease: acute model; format: in vivo, C57BL6 female mice
Procedure: Efficacy Evaluation in a Murine Model of Clostridium difficile-Associated Disease: Acute Model
The efficacy of compounds in suppressing C. diff infection was assessed in C57BL6 female mice. Mice were made vulnerable to C. diff. infection by administration of a cocktail of antibiotics (1% glucose, kanamycin (0.5 mg/mL), gentamicin (44 μg/mL), colistin (1062.5 U/mL), metronidazole (269 μg/mL), ciprofloxacin (156 μg/mL), ampicillin (100 μg/mL) and vancomycin (56 μg/mL)) in drinking water for a period of 9 days. 3 days prior to C. diff. infection, mice received a single dose of clindamycin (10 mg/kg) in a volume of 0.5 mL by oral gavage. After this antibiotic pre-treatment, mice received a challenge of approximately 4.5 log 10 viable spores of strain VPI 10463 (ATCC-43255) administered by oral gavage. Test compounds (bile acid) and placebo were administered in the chow or via oral gavage bid from day −2 through day 4 or 10 or 11. Gavage medium was aqueous, PBS-buffered 0.5% hydroxypropyl methylcellulose (HPMC) suspension. Efficacy of test articles was assessed by enumeration of survival of test animals over 12/15 days following C. diff, challenge and by comparison of mortality, disease severity scores and assessment of body weight against placebo treatment.
Results studies 1, 2 and 3 (using compound Example 1, dosed with 100 mg/kg daily dose via food or via gavage bid): […]

[3] = tested on: C. diff. strain VPI 10463 (ATCC-43255) infection; experiment: Recurrence model mouse of C. diff. infection; format: in vivo, C57BL/6 female mice; conditions: for Survived / Total Deaths: Day 5 to Day 11, n 10
Procedure: The efficacy of compounds in suppressing recurrent C. diff. infection was assessed in C57BL/6 female mice. Mice were made vulnerable to C. diff. infection by administration of a cocktail of antibiotics (1% glucose, kanamycin (0.5 mg/mL), gentamicin (44 μg/mL), colistin (1062.5 U/mL), metronidazole (269 μg/mL), ciprofloxacin (156 μg/mL), ampicillin (100 μg/mL) and vancomycin (56 μg/mL)) in drinking water for a period of 9 days. 3 days prior to C. diff. infection, mice received a single dose of clindamycin (10 mg/kg) in a volume of 0.5 mL by oral gavage. After this antibiotic pre-treatment, mice received a challenge of approximately 4.5 log 10 viable spores of strain VPI 10463 (ATCC-43255) administered by oral gavage (day 0). After that mice received 50 mg/kg vancomycin from day 0 until day 4. Test articles (bile acid) and placebo were administered via oral gavage bid from day 5 through day 11. Efficacy of test articles was assessed by enumeration of survival of test animals over 15 days following C. diff, challenge and by comparison of mortality, disease severity scores and assessment of body weight against placebo treatment.

[4] = tested on: C. diff. strain BI1 infection; experiment: Recurrence model hamster of C. diff. infection; format: in vivo, male Syrian hamster; conditions: for survivors: repeated experiment (FIG. 5), 100% of vehicle animals died within 13 days
Procedure: The efficacy of compounds in suppressing recurrent C. diff infection was assessed in male Syrian hamster. Hamster were made vulnerable to C. diff. infection by administration 1 day prior to C. diff, infection of a single dose of clindamycin (30 mg/kg) by oral gavage. After this antibiotic pre-treatment, mice received a challenge of approximately 1560 viable spores of strain BI1 administered by oral gavage (day 0). After that hamster received 10 mg/kg vancomycin from day 0 until day 5. Test articles (bile acid) and placebo were administered via oral gavage bid from day 6 through day 15. Efficacy of test articles was assessed by enumeration of survival of test animals over 20 days following C. diff. challenge and by comparison of mortality, disease severity scores and assessment of body weight against placebo treatment.

[5] = ALT plasma concentration of mice after 5 days administration; format: in vivo; conditions: 500 mg/kg for 5 days, mice (FIG. 1a, 1b); result in words
[6] = Study 1, 0.1% in chow, Day −2 to Day 10
[7] = Study 1, 0.1% in chow, Day −2 to Day 10, n 10
[8] = Study 2, 0.1% in chow, Day −2 to Day 10
[9] = Study 2, 0.1% in chow, Day −2 to Day 10, n 10
[10] = Study 3, 0.1% in chow, Day −2 to Day 4
[11] = Study 3, 0.1% in chow, Day −2 to Day 4, n 10
[12] = Study 3, 0.1% in chow, Day −2 to Day 10
[13] = Study 3, as gavage, Day −2 to Day 4
[14] = Study 3, as gavage, Day −2 to Day 4, n 10
[15] = Study 3, as gavage, Day −2 to Day 10
[16] = Study 2 (so in the source), 0.1% in chow, Day −2 to Day 10
[17] = Study 2, as gavage, Day 5 to Day 11

Question: Which results are given for `C[C@H](CCC(=O)O)[C@H]1CC[C@H]2[C@@H]3CC[C@@H]4C[C@@H](O)CC[C@]4(C)[C@H]3CC[C@]12C` [Example 1, Isolithocholic Acid]?
Answer: MIC [1]: 16 µM (≈ 6.03 µg/mL); % Death [2, 6]: 0%; % mouse days with total clinical score >0 [2, 6]: 30%; % mouse days with total clinical score >2 [2, 6]: 0%; Body weight day 12 [2, 6]: 19.0; Survived [2, 7]: 10; Total Deaths [2, 7]: 0; % Death [2, 8]: 0%; % mouse days with total clinical score >0 [2, 8]: 65%; % mouse days with total clinical score >2 [2, 8]: 0%; Body weight day 12 [2, 8]: 20.0; Survived [2, 9]: 10; Total Deaths [2, 9]: 0; % Death [2, 10]: 20%; Body weight day 12 [2, 10]: 18.1; Survived [2, 11]: 8; Total Deaths [2, 11]: 2; % mouse days with total clinical score >0 [2, 12]: 72%; % mouse days with total clinical score >2 [2, 12]: 15%; % Death [2, 13]: 0%; Body weight day 12 [2, 13]: 15.5 g; Survived [2, 14]: 10; Total Deaths [2, 14]: 0; % mouse days with total clinical score >0 [2, 15]: 30%; % mouse days with total clinical score >2 [2, 15]: 2%; animals in the treatment groups survived ([2]; first study (vehicle group 40% died)): 100%; animals in the treatment groups survived ([2]; second study (vehicle group 30% died)): 100%; animals in the treatment groups survived ([2]; third study (vehicle group 80% died)): 80%; survival of the animals ([3]; 100 mg/kg, comparison Example 3 against Example 1 (FIG. 3)): 30%; efficacy (surviving rate), head-to-head comparison of iso-LCA and LCA ([3]; FIG. 2, result in words): higher surviving rate; % Death ([3]; Study 1, 0.1% in chow, Day 5 to Day 11): 0%; Survived ([3]; Study 1, 0.1% in chow): 10; Total Deaths ([3]; Study 1, 0.1% in chow): 0; Body weight day 12 [3, 6]: 18.4; % mouse days with total clinical score >0 [3, 16]: 30%; % mouse days with total clinical score >2 [3, 16]: 1%; % Death [3, 17]: 0%; % mouse days with total clinical score >0 [3, 17]: 56%; % mouse days with total clinical score >2 [3, 17]: 0%; Body weight day 12 [3, 17]: 16.9 g; Survived ([3]; Study 2, as gavage): 10; Total Deaths ([3]; Study 2, as gavage): 0; animals in the treatment groups died ([3]; vehicle group 70 to 80% died, result in words): none; survivors ([4]; 30 mg/kg): 20%; survivors ([4]; 100 mg/kg): 40%; animals protected ([4]; dose-dependent manner (FIG. 5)): 20-40%; animals in the treatment group died ([4]; first experiment (FIG. 4), vehicle group 20% died, result in words): none; spores in caecum and colon of surviving animals ([4]; result in words): removed all spores from caecum and colon; ALT-elevation (ALT plasma concentration) [5]: less pronounced
